Test results as given in ChEMBL document CHEMBL1201862, “PubChem BioAssay data set” (2004).
One block for each compound: values may come before it. Activity calls are given as the source filed them.

Experiments:
[1] = target: T1, Probable nicotinate-nucleotide adenylyltransferase (Staphylococcus aureus (strain N315), UniProt P65502); type: functional, Staphylococcus aureus subsp. aureus N315;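 as to IC50 Mean: confirmatory dose-response retesting of NadD inhibitor hits first found in an ultra-high-throughput screen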
[2] = target: T1, Probable nicotinate-nucleotide adenylyltransferase; type: functional, Staphylococcus aureus subsp. aureus N315; details: read-out: IC50_Mean
[3] = target: T2, Sentrin-specific protease 8 (Homo sapiens, UniProt Q96LD8); type: functional
T2 sequence (Q96LD8 whole entry): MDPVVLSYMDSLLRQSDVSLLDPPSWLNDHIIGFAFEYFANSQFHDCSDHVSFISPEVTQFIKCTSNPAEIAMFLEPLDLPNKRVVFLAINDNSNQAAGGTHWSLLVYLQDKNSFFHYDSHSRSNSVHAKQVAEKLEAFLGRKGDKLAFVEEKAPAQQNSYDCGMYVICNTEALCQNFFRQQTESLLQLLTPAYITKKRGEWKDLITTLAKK

[4] = target: T2, Sentrin-specific protease 8; type: functional; remark: listed apart in the source
[5] = growth suppression of beta-catenin-knockout colon cells, dose response, cell-based, HCT116, human colon tumor (AID 1045); type: functional;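 also: HCT116 colon tumor cells with beta catenin knocked out; cells exposed to compound for 60 hours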
[6] = growth suppression of PTEN-null colon cells, dose response, cell-based, HCT116 PTEN knockout (AID 1047); type: functional;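 also: HCT116 colon tumor cells with PTEN knocked out; cells exposed to compound for 60 hours before readout; potency for loss of cell viability measured by luminescence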
[7] = T. cruzi growth inhibition in host cells, dose response, cell-based, plate reader, dry powder, set 2 (AID 652275); type: functional
[8] = target: T3, Methionyl-tRNA synthetase, putative (Trypanosoma brucei brucei, UniProt Q38C91); type: functional, Trypanosoma brucei brucei strain 927/4 GUTat10.1
T3 sequence (Q38C91 whole entry): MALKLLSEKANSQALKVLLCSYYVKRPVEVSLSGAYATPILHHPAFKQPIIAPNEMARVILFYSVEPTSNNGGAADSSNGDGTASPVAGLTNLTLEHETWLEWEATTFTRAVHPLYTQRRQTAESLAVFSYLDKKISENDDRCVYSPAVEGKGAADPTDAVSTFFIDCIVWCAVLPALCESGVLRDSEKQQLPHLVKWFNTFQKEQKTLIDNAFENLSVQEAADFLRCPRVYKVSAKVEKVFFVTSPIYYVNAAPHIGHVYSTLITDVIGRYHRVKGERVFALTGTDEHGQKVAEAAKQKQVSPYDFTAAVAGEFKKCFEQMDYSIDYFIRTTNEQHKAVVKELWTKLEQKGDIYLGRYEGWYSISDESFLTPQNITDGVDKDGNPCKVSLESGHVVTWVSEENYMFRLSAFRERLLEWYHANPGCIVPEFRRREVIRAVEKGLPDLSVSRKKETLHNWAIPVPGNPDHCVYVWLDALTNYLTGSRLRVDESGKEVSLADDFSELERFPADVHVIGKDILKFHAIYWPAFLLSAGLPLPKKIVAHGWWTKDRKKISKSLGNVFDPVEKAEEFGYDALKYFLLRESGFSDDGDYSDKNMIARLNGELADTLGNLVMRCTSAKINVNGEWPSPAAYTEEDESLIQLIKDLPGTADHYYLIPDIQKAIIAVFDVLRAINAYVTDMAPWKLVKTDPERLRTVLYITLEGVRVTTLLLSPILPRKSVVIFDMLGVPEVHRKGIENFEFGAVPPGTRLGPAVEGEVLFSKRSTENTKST

[9] = target: T3, Methionyl-tRNA synthetase, putative; type: functional, Trypanosoma brucei brucei strain 927/4 GUTat10.1; remark: listed apart in the source
[10] = Counterscreen for inhibitors of Trypanosoma brucei methionyl tRNA synthetase (MetRS): Luminescence-based cell-based high throughput dose response assay to identify compounds that are cytotoxic to Jurkat human T lymphocyte cells.; type: functional
[11] = cytotoxicity in OVCAR8 ovarian cancer cells, dose response, PAX8 project, cell-based, plate reader, dry powder samples (AID 743197); type: functional; details: OVCAR-8
Paired box protein Pax-8 = Paired box protein Pax-8 (Homo sapiens, UniProt Q06710); assay: inhibitors of PAX8-driven TPO luciferase reporter, dose response, RMG-I cells, cherry-pick (AID 687027); type: functional, cell-based;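 also: luciferase reporter driven by Pax8 target thyroperoxidase promoter measured by SteadyGlo luminescence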
[12] = Late stage assay provider results from the probe development effort to identify inhibitors of the Plasmodium falciparum M17 Leucine Aminopeptidase (M17LAP): radiolabel-based cell-based dose response assay to identify compounds that inhibit P. falciparum growth in RBCs Set 2.; type: functional
[13] = HepG2 cell cytotoxicity, dose response, cytotoxicity control, cherry-picked samples (AID 1159577); type: functional, cell-based
[14] = P. falciparum Dd2 growth inhibitors, dose response, SYBR Green, cherry-picked samples (AID 1159567); type: functional, cell-based
Galanin receptor type 3 = Galanin receptor type 3 (Homo sapiens, UniProt O60755); assay: Fluorescence-based cell-based primary high throughput dose response assay to identify antagonists of the Galanin Receptor 3 (GalR3).; type: functional
cells = type: functional, cell-based; details: HEK-CNG
Protein Tat = Protein Tat (Human immunodeficiency virus type 1 group M subtype B (isolate HXB2)(HIV-1), UniProt P04608); type: functional;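 also: tat binding to TAR RNA read out by fluorescence polarization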
Large T antigen = Large T antigen (Simian virus 40, UniProt P03070); type: functional, Betapolyomavirus macacae;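 also: Confirmatory-stage PubChem screen for compounds that inhibit SV40 T antigen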
[15] = target: T4, Oxysterols receptor LXR-beta (Homo sapiens, UniProt P55055); type: functional, cell-based;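 also: agonist activity at LXR measured by a cell-based luminescence readout across a dose range, run as a counterscreen for daf-12 agonists; HEK293 cells with Gal4-LXR fusion and GAL4-driven luciferase reporter; potency for activation of Gal4-LXR reporter so compounds are agonists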
T4 sequence (P55055 whole entry): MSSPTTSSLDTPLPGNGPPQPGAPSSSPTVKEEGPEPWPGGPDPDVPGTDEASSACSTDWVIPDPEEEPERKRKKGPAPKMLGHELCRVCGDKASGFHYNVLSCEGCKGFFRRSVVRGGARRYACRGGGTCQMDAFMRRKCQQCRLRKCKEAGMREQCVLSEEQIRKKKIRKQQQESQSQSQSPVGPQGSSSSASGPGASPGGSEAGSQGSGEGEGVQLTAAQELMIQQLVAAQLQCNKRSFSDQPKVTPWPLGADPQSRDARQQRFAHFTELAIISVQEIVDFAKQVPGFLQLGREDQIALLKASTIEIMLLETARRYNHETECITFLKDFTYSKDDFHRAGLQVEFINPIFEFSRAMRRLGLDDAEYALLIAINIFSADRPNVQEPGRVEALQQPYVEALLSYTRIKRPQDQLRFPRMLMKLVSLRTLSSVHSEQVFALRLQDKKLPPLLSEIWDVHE

Chain of Large T antigen (P03070 whole entry, the tested form may be a part): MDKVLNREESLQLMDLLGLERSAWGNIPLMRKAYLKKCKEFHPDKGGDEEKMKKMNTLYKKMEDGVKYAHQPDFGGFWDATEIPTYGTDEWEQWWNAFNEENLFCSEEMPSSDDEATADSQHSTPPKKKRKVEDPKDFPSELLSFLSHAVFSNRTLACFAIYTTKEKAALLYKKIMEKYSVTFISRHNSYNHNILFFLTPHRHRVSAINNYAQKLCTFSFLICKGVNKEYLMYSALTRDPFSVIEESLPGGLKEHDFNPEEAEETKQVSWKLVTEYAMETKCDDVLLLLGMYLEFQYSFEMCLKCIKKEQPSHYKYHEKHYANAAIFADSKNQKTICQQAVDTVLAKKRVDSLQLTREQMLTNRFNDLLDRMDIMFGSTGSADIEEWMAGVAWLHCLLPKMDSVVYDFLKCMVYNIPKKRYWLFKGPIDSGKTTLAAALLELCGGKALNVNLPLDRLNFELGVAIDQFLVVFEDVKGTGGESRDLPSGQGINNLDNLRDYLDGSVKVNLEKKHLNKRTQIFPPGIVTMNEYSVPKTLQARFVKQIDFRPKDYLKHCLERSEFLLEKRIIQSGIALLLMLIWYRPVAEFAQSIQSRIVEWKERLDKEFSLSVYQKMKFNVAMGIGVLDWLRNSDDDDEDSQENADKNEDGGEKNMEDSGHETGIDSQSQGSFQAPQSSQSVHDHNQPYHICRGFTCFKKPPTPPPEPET
Chain of Protein Tat (P04608 whole entry): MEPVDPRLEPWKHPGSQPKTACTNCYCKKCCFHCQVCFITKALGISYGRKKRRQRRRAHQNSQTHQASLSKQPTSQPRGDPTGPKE
Chain of Paired box protein Pax-8 (Q06710 whole entry): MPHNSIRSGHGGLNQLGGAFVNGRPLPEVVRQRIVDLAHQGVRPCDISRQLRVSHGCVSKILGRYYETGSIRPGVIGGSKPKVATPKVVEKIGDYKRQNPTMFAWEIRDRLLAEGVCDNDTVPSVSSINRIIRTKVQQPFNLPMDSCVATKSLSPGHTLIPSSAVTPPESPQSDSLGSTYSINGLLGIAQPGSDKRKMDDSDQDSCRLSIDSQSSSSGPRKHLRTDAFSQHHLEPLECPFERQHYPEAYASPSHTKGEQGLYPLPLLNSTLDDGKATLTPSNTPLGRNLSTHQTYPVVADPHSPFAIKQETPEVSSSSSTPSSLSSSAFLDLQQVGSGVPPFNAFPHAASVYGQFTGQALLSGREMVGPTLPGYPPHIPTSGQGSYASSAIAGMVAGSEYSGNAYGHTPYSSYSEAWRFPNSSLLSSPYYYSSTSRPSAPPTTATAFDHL
Chain of Galanin receptor type 3 (O60755 whole entry): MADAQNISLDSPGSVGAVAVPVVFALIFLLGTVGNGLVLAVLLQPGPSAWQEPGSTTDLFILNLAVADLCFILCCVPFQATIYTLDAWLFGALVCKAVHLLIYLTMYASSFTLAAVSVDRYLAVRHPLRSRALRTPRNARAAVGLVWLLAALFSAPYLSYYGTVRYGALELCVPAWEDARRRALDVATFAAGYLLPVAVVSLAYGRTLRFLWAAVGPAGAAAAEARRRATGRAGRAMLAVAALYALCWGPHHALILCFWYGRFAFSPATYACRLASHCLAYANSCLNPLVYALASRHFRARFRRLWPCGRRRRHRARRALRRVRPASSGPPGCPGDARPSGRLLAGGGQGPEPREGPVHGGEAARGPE

IC50 [1]: 6.57 µM (active) | IC50 [2]: 15.7 µM (active)
Compound: CC1(OC(=O)C2CCCC2)C(=O)C=C2C=C(c3ccc(C#N)cc3)OC=C2C1=O (configuration not stated)

Compound: Cc1[nH]n(-c2ccccc2)c(=O)c1S(=O)(=O)c1ccccc1
IC50 [3]: 12.8 µM (active) | IC50 [4]: 4.99 µM (active)

Compound: O=C(NC(=S)Nc1cc(-c2nc3ccccc3[nH]2)ccc1Cl)c1ccc2c(c1)OCO2
EC50 [5]: 2.23 µM (active) | IC50 [1]: 21.1 µM (active) | IC50 [2]: 58.9 µM (active) | EC50 [6]: 1.53 µM (active)

Compound: CC(C)N1C[C@H](C)[C@@H](CN(C)Cc2ccc(Cl)c(Cl)c2)Oc2c(cccc2-c2cn(-c3ccncc3)nn2)C1=O
AC50 [7]: 0.00149 µM (active)

Compound: COc1ccc(CNC(=O)CSc2n[nH]c3c4ccccc4nc-3n2)cc1
IC50 [8]: 4.39 µM (active) | IC50 [9]: 1.54 µM (active) | IC50 [10]: 83.3 µM (inactive)

Compound: COCCNC(=O)C[C@@H]1C[C@H]2c3cc(NC(=O)Nc4ccc(C(F)(F)F)cc4)ccc3O[C@H]2[C@H](CO)O1
AC50 [11]: > 70 µM (inactive) | AC50 (Paired box protein Pax-8): 26.6 µM (active)

Compound: CCOc1ccc(CC(=O)NO)cc1
IC50 [12]: 7.2 µM (active)

Compound: C[C@H](CO)N1C[C@H](C)[C@H](CN(C)Cc2ccc(Oc3ccccc3)cc2)Oc2ccc(NC(=O)Nc3ccc(C(F)(F)F)cc3)cc2C1=O
AC50 [13]: 7.87 µM (active) | AC50 [14]: 9.62 µM (active)

Compound: CNC(=O)NC(=O)CSc1nnc(-c2ccc(F)cc2)n1CC1CCCO1 (configuration not stated)
IC50 (Galanin receptor type 3): > 29.9 µM (inactive) | EC50 (cells): > 29.9 µM (inactive)

IC50 (Protein Tat): > 100 µM (active) | IC50 (Large T antigen): 6.55 µM (active)
Compound: O=C(CN1CCN(S(=O)(=O)c2ccc(F)cc2)CC1)c1ccc(O)c(O)c1

EC50 [15]: > 67.5 µM (inactive)
Compound: Cc1cccc(Nc2[nH]nc(C)c2[N+](=O)[O-])c1
